Reference: patent publication US20070117770A1, “Human ribosomal DNA (rDNA) and ribosomal RNA (rRNA) nucleic acids and uses thereof” (Cylene Pharmaceuticals, Inc., priority 2005, published 2007)

What was measured:
Test in all cases: Protein kinase inhibition assay
Type in all cases: biochemical
BrSK2(h) = BrSK2(h) (Homo sapiens, UniProt Q8IWQ3); settings: read-out: percent residual activity of BrSK2(h)
Protocol: (§1) Certain compounds were tested for activity in protein kinase inhibition assays. All substrates were dissolved and diluted to working stocks in de-ionized water, apart from histone H1 (10× working stock in 20 mM MOPS pH 7.0), PDKtide (10× working stock in 50 mM Tris pH 7.0) ATF2 (which is typically stored at a 20× working stock in 50 mM Tris pH 7.5, 150 mM NaCl, 0.1 mM EGTA, 0.03% Brij-35, 50% glycerol, 1 mM benzamidine, 0.2 mM PMSF and 0.1% R-mercaptoethanol), KKLNRTLSFAEPG (SEQ ID NO:203) and RRRLSFAEPG (SEQ ID NO:204) (50 mM HEPES pH 7.4) and GGEEEEYFELVKKKK (SEQ ID NO:205) (20 mM MOPS pH 7.0). All kinases were pre-diluted to a 10× working concentration prior to addition into the assay. The composition of the dilution buffer for each kinase is detailed below.

CK1γ3(h) = CK1γ3(h) (Homo sapiens, UniProt Q9Y6M4); settings: read-out: percent residual activity of CK1γ3(h)
Protocol: as §1

CaMKI(h) = CaMKI(h) (Homo sapiens, UniProt Q14012); settings: read-out: percent residual activity of CaMKI(h)
Protocol: as §1

CaMKIIγ(h) = CaMKIIγ(h) (Homo sapiens, UniProt Q13555); settings: read-out: percent residual activity of CaMKIIγ(h)
Protocol: as §1

DMPK(h) = DMPK(h) (Homo sapiens, UniProt Q09013); settings: read-out: percent residual activity of DMPK(h)
Protocol: as §1

DRAK1(h) = biological target: T1, DRAK1(h) (Homo sapiens, UniProt Q9UEE5); settings: for remaining activity at 2.5 µM: read-out: percent residual activity of DRAK1(h)
T1 sequence (Q9UEE5 1-414): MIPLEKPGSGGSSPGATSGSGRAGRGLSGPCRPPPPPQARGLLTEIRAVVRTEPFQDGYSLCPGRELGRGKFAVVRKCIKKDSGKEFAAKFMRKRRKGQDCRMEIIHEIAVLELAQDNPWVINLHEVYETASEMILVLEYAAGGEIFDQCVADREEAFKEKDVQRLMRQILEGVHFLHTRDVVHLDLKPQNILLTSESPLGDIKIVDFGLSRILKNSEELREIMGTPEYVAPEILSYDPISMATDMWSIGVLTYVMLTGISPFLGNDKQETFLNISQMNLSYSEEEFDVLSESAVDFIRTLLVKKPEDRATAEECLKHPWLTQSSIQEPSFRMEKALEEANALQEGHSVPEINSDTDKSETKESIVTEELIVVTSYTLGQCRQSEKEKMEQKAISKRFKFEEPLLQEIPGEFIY
Protocol: as §1

DYRK2(h) = DYRK2(h) (Homo sapiens, UniProt Q92630); settings: read-out: percent residual activity of DYRK2(h)
Protocol: as §1

FAK(h) = FAK(h) (Homo sapiens, UniProt Q05397); settings: read-out: percent residual activity of FAK(h)
Protocol: as §1

HIPK1(h) = HIPK1(h) (Homo sapiens, UniProt Q86Z02); settings: read-out: percent residual activity of HIPK1(h)
Protocol: as §1

HIPK3(h) = HIPK3(h) (Homo sapiens, UniProt Q9H422); settings: read-out: percent residual activity of HIPK3(h)
Protocol: as §1

IRAK1(h) = IRAK1(h) (Homo sapiens, UniProt P51617); settings: read-out: percent residual activity of IRAK1(h)
Protocol: as §1

LIMK1(h) = LIMK1(h) (Homo sapiens, UniProt P53667); settings: read-out: percent residual activity of LIMK1(h)
Protocol: as §1

LKB1(h) = LKB1(h) (Homo sapiens, UniProt Q15831); settings: read-out: percent residual activity of LKB1(h)
Protocol: as §1

LOK(h) = LOK(h) (Homo sapiens, UniProt O94804); settings: read-out: percent residual activity of LOK(h)
Protocol: as §1

MARK1(h) = MARK1(h) (Homo sapiens, UniProt Q9P0L2); settings: read-out: percent residual activity of MARK1(h)
Protocol: as §1

MRCKα(h) = MRCKα(h) (Homo sapiens, UniProt Q5VT25); settings: read-out: percent residual activity of MRCKα(h)
Protocol: as §1

MSSK1(h) = MSSK1(h) (Homo sapiens, UniProt Q9UPE1); settings: read-out: percent residual activity of MSSK1(h)
Protocol: as §1

Mer(h) = Mer(h) (Homo sapiens, UniProt Q12866); settings: read-out: percent residual activity of Mer(h)
Protocol: as §1

Mnk2(h) = Mnk2(h) (Homo sapiens, UniProt Q9HBH9); settings: read-out: percent residual activity of Mnk2(h)
Protocol: as §1

NEK11(h) = NEK11(h) (Homo sapiens, UniProt Q8NG66); settings: read-out: percent residual activity of NEK11(h)
Protocol: as §1

NLK (h) = NLK (h) (Homo sapiens, UniProt Q9UBE8); settings: read-out: percent residual activity of NLK (h)
Protocol: as §1

PAK5(h) = PAK5(h) (Homo sapiens, UniProt Q9P286); settings: read-out: percent residual activity of PAK5(h)
Protocol: as §1

SIK(h) = SIK(h) (Homo sapiens, UniProt P57059); settings: read-out: percent residual activity of SIK(h)
Protocol: as §1

WNK3(h) = WNK3(h) (Homo sapiens, UniProt Q9BYP7); settings: read-out: percent residual activity of WNK3(h)
Protocol: as §1

LOK(h), sequence (O94804 whole entry): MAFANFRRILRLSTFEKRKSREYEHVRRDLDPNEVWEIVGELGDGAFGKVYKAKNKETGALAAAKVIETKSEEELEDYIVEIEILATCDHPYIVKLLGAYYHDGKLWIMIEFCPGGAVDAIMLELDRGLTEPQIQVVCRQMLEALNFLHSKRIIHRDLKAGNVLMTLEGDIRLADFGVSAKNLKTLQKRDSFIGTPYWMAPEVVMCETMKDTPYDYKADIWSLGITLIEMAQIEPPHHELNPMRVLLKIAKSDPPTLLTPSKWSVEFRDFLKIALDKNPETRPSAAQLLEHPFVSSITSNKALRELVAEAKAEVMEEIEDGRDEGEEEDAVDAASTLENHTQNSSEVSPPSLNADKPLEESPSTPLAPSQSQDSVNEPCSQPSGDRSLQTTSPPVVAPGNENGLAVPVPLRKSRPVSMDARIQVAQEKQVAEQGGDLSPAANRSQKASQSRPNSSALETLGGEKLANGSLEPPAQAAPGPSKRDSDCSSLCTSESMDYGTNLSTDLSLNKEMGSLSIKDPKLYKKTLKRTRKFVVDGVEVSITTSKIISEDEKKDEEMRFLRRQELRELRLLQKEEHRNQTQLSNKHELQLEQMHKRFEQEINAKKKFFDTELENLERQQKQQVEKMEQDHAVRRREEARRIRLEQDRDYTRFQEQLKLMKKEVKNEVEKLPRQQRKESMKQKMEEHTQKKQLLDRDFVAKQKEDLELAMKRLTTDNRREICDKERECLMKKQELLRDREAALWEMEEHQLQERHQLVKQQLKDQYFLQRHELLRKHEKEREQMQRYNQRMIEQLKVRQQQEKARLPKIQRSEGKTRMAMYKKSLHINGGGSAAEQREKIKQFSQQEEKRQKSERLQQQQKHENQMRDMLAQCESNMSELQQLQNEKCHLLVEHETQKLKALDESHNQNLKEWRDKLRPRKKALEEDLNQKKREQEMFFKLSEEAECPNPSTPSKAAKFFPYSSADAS
WNK3(h), sequence (Q9BYP7 whole entry): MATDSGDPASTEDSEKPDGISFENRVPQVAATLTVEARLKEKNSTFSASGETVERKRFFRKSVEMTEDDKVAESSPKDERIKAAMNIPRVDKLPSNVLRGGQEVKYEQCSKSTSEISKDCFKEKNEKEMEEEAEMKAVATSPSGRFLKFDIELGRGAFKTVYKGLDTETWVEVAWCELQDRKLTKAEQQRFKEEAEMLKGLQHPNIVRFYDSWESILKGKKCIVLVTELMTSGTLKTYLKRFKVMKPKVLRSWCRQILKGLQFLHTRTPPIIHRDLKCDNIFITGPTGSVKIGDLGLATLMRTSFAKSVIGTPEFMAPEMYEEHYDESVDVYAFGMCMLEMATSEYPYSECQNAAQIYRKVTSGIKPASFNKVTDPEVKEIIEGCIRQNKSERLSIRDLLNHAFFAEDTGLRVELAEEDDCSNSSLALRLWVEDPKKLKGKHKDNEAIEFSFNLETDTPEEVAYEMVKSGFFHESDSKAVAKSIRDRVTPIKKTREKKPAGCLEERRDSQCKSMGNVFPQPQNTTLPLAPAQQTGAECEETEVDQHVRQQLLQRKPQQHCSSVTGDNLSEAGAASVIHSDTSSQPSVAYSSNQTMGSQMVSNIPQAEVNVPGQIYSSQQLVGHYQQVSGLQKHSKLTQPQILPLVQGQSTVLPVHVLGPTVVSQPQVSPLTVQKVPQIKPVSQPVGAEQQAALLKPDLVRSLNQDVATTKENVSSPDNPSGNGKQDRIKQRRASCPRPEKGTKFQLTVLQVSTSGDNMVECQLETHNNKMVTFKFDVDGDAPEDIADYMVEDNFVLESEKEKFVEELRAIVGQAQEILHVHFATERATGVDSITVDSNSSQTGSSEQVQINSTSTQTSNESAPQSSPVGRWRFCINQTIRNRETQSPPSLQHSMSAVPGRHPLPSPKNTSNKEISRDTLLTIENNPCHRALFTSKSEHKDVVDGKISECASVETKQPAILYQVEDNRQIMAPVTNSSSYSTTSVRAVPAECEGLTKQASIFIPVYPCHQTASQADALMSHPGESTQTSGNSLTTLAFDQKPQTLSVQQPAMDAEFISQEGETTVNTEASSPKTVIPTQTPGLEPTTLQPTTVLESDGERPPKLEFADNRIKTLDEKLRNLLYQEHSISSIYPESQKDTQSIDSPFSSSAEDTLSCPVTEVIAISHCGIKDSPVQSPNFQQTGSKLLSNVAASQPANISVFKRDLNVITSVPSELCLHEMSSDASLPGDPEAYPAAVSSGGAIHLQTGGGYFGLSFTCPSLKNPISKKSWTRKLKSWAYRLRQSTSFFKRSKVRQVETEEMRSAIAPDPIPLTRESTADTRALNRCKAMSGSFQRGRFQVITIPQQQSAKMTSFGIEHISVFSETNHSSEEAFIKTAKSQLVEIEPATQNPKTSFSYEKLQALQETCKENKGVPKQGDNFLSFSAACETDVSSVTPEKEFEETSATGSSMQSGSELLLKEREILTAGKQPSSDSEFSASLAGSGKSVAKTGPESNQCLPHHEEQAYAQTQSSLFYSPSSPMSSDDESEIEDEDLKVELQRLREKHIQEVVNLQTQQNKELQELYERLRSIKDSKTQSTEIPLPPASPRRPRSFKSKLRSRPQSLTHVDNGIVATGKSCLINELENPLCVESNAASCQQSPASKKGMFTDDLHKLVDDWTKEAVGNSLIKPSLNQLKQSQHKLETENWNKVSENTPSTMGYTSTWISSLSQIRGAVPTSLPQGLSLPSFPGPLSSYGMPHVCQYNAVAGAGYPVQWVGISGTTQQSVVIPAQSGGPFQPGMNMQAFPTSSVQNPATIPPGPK
MSSK1(h), sequence (Q9UPE1 whole entry): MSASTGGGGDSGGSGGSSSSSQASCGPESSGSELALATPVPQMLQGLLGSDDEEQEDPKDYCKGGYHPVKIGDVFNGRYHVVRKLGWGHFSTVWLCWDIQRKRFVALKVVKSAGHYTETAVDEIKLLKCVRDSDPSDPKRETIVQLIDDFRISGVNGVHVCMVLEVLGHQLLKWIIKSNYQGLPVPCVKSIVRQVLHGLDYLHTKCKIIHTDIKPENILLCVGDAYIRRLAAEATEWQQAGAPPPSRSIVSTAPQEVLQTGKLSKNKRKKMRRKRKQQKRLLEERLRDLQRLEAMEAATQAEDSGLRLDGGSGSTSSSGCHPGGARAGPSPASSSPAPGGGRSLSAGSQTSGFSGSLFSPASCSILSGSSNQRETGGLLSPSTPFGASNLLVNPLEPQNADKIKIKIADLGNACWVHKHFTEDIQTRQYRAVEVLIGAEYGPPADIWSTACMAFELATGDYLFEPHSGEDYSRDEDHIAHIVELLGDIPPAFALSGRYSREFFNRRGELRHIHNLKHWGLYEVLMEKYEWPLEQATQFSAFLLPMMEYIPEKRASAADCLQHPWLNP
LIMK1(h), sequence (P53667 whole entry): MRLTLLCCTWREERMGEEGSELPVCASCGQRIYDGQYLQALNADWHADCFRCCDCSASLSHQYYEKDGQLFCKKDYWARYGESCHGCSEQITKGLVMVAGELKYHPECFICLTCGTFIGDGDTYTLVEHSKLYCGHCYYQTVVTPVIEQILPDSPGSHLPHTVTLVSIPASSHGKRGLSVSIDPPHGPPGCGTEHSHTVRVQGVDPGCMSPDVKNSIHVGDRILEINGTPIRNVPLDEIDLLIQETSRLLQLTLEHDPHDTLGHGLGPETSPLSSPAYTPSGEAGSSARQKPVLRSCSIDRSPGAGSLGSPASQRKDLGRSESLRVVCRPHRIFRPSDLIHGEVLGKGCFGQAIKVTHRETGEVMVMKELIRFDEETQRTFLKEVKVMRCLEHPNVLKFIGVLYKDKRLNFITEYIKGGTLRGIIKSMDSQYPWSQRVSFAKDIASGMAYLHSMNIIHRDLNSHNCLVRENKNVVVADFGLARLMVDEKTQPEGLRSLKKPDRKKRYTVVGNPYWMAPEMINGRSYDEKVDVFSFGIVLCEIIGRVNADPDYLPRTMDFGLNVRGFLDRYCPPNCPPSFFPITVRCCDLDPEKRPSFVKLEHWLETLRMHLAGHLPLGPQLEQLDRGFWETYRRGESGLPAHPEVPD
BrSK2(h), sequence (Q8IWQ3 whole entry): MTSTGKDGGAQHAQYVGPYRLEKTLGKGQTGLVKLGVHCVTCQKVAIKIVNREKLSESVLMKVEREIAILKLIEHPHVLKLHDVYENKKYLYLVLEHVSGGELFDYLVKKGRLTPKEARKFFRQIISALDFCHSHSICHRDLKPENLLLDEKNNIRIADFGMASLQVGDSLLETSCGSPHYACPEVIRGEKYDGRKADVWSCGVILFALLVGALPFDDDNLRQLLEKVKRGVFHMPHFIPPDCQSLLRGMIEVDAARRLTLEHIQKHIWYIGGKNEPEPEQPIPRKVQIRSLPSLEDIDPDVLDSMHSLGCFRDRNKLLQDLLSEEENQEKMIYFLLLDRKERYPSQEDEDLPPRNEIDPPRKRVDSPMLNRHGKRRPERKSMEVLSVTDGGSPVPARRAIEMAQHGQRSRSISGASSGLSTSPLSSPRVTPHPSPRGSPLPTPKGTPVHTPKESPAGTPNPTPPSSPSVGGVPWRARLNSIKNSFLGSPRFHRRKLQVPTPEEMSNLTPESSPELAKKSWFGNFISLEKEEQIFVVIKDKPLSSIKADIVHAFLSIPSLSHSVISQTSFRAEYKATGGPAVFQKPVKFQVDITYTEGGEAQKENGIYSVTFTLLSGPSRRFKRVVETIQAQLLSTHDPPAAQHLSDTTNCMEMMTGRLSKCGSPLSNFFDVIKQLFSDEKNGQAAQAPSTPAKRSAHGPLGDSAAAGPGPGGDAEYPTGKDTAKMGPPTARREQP

Structure (SMILES) | remaining activity at 2.5 µM (BrSK2(h)) [%] | remaining activity at 2.5 µM (CK1γ3(h)) [%] | remaining activity at 2.5 µM (CaMKI(h)) [%] | remaining activity at 2.5 µM (CaMKIIγ(h)) [%] | remaining activity at 2.5 µM (DMPK(h)) [%] | remaining activity at 2.5 µM (DRAK1(h)) [%] | remaining activity at 2.5 µM (DYRK2(h)) [%] | remaining activity at 2.5 µM (FAK(h)) [%] | remaining activity at 2.5 µM (HIPK1(h)) [%] | remaining activity at 2.5 µM (HIPK3(h)) [%] | remaining activity at 2.5 µM (IRAK1(h)) [%] | remaining activity at 2.5 µM (LIMK1(h)) [%] | remaining activity at 2.5 µM (LKB1(h)) [%] | remaining activity at 2.5 µM (LOK(h)) [%] | remaining activity at 2.5 µM (MARK1(h)) [%] | remaining activity at 2.5 µM (MRCKα(h)) [%] | remaining activity at 2.5 µM (MSSK1(h)) [%] | remaining activity at 2.5 µM (Mer(h)) [%] | remaining activity at 2.5 µM (Mnk2(h)) [%] | remaining activity at 2.5 µM (NEK11(h)) [%] | other results
CN1CCCC1CCNC(=O)c1cn2c3c(c(N4CCC(c5cnccn5)C4)c(F)cc3c1=O)Oc1cc3ccccc3cc1-2 (stereo not shown) [Compound A-1] | 96 | 103 | 95 | 110 | 92 | 11 | 70 | 94 | 95 | 102 | 86 | 97 | 98 | 88 | 83 | 85 | 41 | 111 | 98 | 70 | inhibition at 2.5 µM (DRAK1(h)): > 80%; remaining activity at 2.5 µM (NLK (h)): 90%; remaining activity at 2.5 µM (PAK5(h)): 103%; remaining activity at 2.5 µM (SIK(h)): 79%; remaining activity at 2.5 µM (WNK3(h)): 98%
CC(=O)N1CCN(c2ccc3c(=O)c(C(=O)NCCN4CCCC4)c4n(C)c5ccccc5n4c3n2)CC1 [Compound B-1] | 96 | 114 | 106 | 104 | 105 | 117 | 75 | 102 | 101 | 97 | 102 | 100 | 101 | 106 | 95 | 98 | 107 | 125 | 115 | 107 | remaining activity at 2.5 µM (NLK (h)): 109%; remaining activity at 2.5 µM (PAK5(h)): 101%; remaining activity at 2.5 µM (SIK(h)): 94%; remaining activity at 2.5 µM (WNK3(h)): 120%
